Measurements reported in US9072698B2, “Method for screening anti-cancer compounds inhibiting function of TM4SF5 and anti-cancer composition containing chalcone compounds” (Seoul National University Industry Foundation, priority 2006, dated 2015).

Key:
[1] = system: tumors formed in mice implanted with TM4SF5-expressing cells (SNU449Tp); test: Tumors in nude mice implanted with TM4SF5-expressing cells, intraperitoneal TSAHC; assay type: in vivo
Experimental: Next, various SNU449 cell lines, expressing or not expressing TM4SF5, were injected into nude mice. 4-5 week-old female nude BALB/cAnNCrjBgi-nu mice (Orient. Co. Ltd), weighing about 20 g, were used. Animals were housed in sterilized cages, and given free access to sterilized water and feed. All procedures were carried out in the clean bench in which laminar flow was continuously maintained to provide a clean environment.
Nude mice were maintained under a light cycle of 12-hr light and 12-hr dark using indoor lamps, for biological cycle of day and night. Suspensions of SNU449 Cp, SNU449Tp, SNU449T16 and SNU449T16m cells were centrifuged, and the concentrated cells were counted using a hemocytometer to adjust them to a density of 1×10^7 cells/200 The prepared cells were subcutaneously injected into the flank of nude mice using a 1-ml syringe having a 26-gauge needle. Experimental animals were maintained according to the preclinical method for breeding of laboratory animals, Seoul National University, and were monitored for tumor formation by SNU449Tp cells.
The length and width of tumors formed in nude mice, prepared in Example 6, were measured one every two days using calipers. Tumor volume was calculated according to the following Equation: Volume (mm^3)=Length×Width2×½, Length: long diameter, Width: short diameter). […]

SNU449 Cp cells = test: Cell growth over time of TM4SF5-null cells (FIG. 43, left); assay type: cell-based, human; conditions: TSAHC at given concentrations
Experimental: Arrows indicate the overlapping nuclei of cells undergoing cell division. […] In addition, in order to measure the growth rates of the cells, 5×10^4 cells were plated onto 6-well plates and counted every 12 hrs. The results are expressed as a graph. […] This was observed even at a low cell density. That is, among cells at a low density, TM4SF5-expressing cells proliferated through cell division, during which two nuclei overlapped each other.

TM4SF5 = biological target: T1, TM4SF5 (Homo sapiens, UniProt O14894); test: Western blotting of lysates treated with PNGase F and Endo H (FIG. 50); assay type: cell-based
T1 construct: expressed in transfected cells; host or cells: SNU449 hepatocarcinoma cells stably expressing TM4SF5 (the embodiment)
T1 sequence (O14894 1-197): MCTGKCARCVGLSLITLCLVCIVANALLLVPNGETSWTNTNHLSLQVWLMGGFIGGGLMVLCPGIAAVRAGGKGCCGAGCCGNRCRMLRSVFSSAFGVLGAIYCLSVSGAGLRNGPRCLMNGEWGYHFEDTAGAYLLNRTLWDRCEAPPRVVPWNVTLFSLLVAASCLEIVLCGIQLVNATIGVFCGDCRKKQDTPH

[2] = system: cells endogenously expressing TM4SF5; test: Growth/proliferation of cells endogenously expressing TM4SF5 (FIG. 51); assay type: cell-based
SNU449Tp cells [3] = test: Transwell chamber cell migration (FIG. 65); assay type: cell-based, human; conditions: 20 μM, 18 hrs
Experimental: Cell migration was examined using Boyden Transwell chamber 24 well plates (Costar, Cambridge, Mass.). SNU449 Cp and SNU449Tp cells were placed in a chamber on a polycarbonate filter (8 μm porosity) at a density of 5×10^4 cells/well, and cultured in serum-free RPMI (Roswell Park Memorial Institute) media in an incubator at 37° C. under 5% CO2 for 24 hrs. Then, cells on the upper surface of the membrane of the insert chamber were completely removed by wiping with a cotton swab. Cells on the lower side of the membrane were fixed with 70% methanol for about 7 min.
SNU449 Cp cells and SNU449Tp cells were plated onto 6-well plates and cultured for 24 hrs. Cells were then treated with 20 μM of TSAHC to culture for 18 hrs. Cells were transferred into insert wells of the Transwell chamber. After 18 hrs, migrated cells were fixed, stained, and observed under an optical microscope. Cells were counted, and the results were expressed as a graph (FIG. 65).

SNU449Tp cells [4] = test: Invasion into collagen gel, microcarrier beads (FIG. 66); assay type: cell-based, human; conditions: 20 μM, 18 hrs
Experimental: Cell invasiveness was analyzed using Cytodex-3 microcarriers. SNU449 Cp and SNU449Tp cells were grown on microcarrier beads in an attached state, and cultured in a collagen gel matrix, including a serum-containing medium at 37° C.
SNU449 Cp cells and SNU449Tp cells were allowed to attach to microcarrier beads, and cultured in the presence of 20 μM of TSAHC for 18 hrs. Bead-cells were cultured in a collagen gel matrix, including a serum-containing medium, and observed for invasion into the collagen gel at given time points.

SNU449Tp cells [5] = test: Invasion into Matrigel, Transwell chamber (FIG. 67); assay type: cell-based, human; conditions: cultured for 24 hrs
Experimental: The invasiveness of SNU449Tp cells was also analyzed using Boyden Transwell chamber 24 well plates, as mentioned in Example 7-(1). Matrigel was added to the insert of the plates, and was allowed to solidify at 37° C. Cells were cultured as described above. After 24 hrs, cells on the upper surface of the membrane of the insert chamber were completely removed by wiping with a cotton swab. As a result, after […], cells that had invaded the lower side of the membrane were stained.
According to the same method described above, cells were seeded in the Transwell chamber, coated with a thick layer of Matrigel, and cultured for 24 hrs. Cells that invaded the Matrigel were counted, and the results are shown as a graph.

Cc1ccc(S(=O)(=O)Nc2ccc(C(=O)/C=C/c3ccc(O)cc3)cc2)cc1 [Compound 1, 4′-(p-toluenesulfonylamino)-4-hydroxychalcone]
tumor size decreased by ([1]; 5 mg/kg intraperitoneally once every two days for three weeks): 45% | tumor size decreased by ([1]; 50 mg/kg intraperitoneally once every two days for three weeks): 88% | effect on TM4SF5-null cells (SNU449 Cp cells): did not affect TM4SF5-null cells | sensitivity of N-linked glycosylated region of TM4SF5 to PNGase F (TM4SF5): increase the sensitivity of an N-linked glycosylated region of TM4SF5 to PNGase F | growth or proliferation of cells endogenously expressing TM4SF5 [2]: inhibited the growth or proliferation of cells endogenously expressing TM4SF5 | TM4SF5-mediated cell migration (SNU449Tp cells [3]): inhibit TM4SF5-mediated cell migration | TM4SF5-mediated cell invasion into collagen gel (SNU449Tp cells [4]): inhibit TM4SF5-mediated cell invasion into collagen gel | invasion into Matrigel (SNU449Tp cells [5]): effectively inhibit invasion into Matrigel
